{"source": "patent US20210251934A1", "about": "“NOVEL COMPOSITIONS FOR THE TREATMENT OF INFLAMMATORY DISEASES” (SystaMedic Inc., priority 2018, published 2021)", "tested_on": "formalin induced pain responses", "assay": "Formalin Test (formalin induced pain responses, flinches and licks)", "type": "in vivo, rat", "conditions": "late phase 20 to 30 min after formalin", "method": "Evaluation of analgesic and anti-inflammatory effects of compositions of claim 1 (See Hunskaar S and Hole K. (1987) Pain 30(1):103-14.)\nIn the Formalin Test a 5% solution of formaldehyde is injected subcutaneously to rat paw which produces a biphasic pain response over a test period of 60 minutes: an early phase lasting the first 5 min and a late phase lasting from 20 to 30 min after the injection of formalin. The early phase is due to a direct effect of […] on nociceptors and the late phase seems to be an inflammatory response with inflammatory pain that can be inhibited by anti-inflammatory drugs. For determining effects of compositions on these response phases two measurements were taken with three minutes interval for determining the number of flinches and licks per minute.\nThe treatments administered consists of (Human equivalent dose)\nThe above ingredients were suspended in 2.5 ml saline solution to feed by gavage one hour before injection of formalin and pain response was measured for 45 minutes. The data were collected in duplicate and average was taken.", "data": [{"molecule": "C=C(C)[C@@H]1CCC(C)=C[C@H]1c1c(O)cc(CCCCC)cc1O", "note": "[Cannabidiol (CBD), Cannabidiol]", "values": [{"measurement": "percent inhibition in formalin induced pain responses", "setting": "human equivalent dose 3 mg", "value": 8, "unit": "%"}, {"measurement": "percent inhibition in formalin induced pain responses", "setting": "human equivalent dose 6.25 mg", "value": 40, "unit": "%"}, {"measurement": "percent inhibition in formalin induced pain responses", "setting": "human equivalent dose 12.5 mg", "value": 40, "unit": "%"}, {"measurement": "percent inhibition in formalin induced pain responses", "setting": "human equivalent dose 25 mg", "value": 90, "unit": "%"}, {"measurement": "percent inhibition in formalin induced pain responses", "setting": "human equivalent dose 50 mg", "value": 90, "unit": "%"}]}, {"molecule": "O[C@H]1[C@H](O)[C@@H](O)[C@H](O)[C@@H](O)[C@H]1O", "note": "[Inositol]", "values": [{"measurement": "percent inhibition in formalin induced pain responses", "setting": "human equivalent dose 31.5 mg", "value": 12, "unit": "%"}, {"measurement": "percent inhibition in formalin induced pain responses", "setting": "human equivalent dose 60.2 mg", "value": 30, "unit": "%"}, {"measurement": "percent inhibition in formalin induced pain responses", "setting": "human equivalent dose 125 mg", "value": 34, "unit": "%"}, {"measurement": "percent inhibition in formalin induced pain responses", "setting": "human equivalent dose 250 mg", "value": 40, "unit": "%"}, {"measurement": "percent inhibition in formalin induced pain responses", "setting": "human equivalent dose 500 mg", "value": 85, "unit": "%"}]}, {"molecule": "CC(=O)Nc1ccc(O)cc1", "note": "[Paracetamol]", "values": [{"measurement": "percent inhibition in formalin induced pain responses", "setting": "human equivalent dose 500 mg", "value": 50, "unit": "%"}, {"measurement": "percent inhibition in formalin induced pain responses", "setting": "human equivalent dose 1000 mg", "value": 70, "unit": "%"}]}, {"molecule": "CC(=O)Oc1ccccc1C(=O)O", "note": "[Aspirin]", "values": [{"measurement": "percent inhibition in formalin induced pain responses", "setting": "human equivalent dose 100 mg", "value": 30, "unit": "%"}]}]}
